Literature values as cited in US8697043B1, “Odor suppression of volatile organic analgesic compounds and method of use” (Chattem, Inc., priority 2013, dated 2014).

Key:
[1] = at 25° C.

Row | Vapor pressure [1] [kPa] | Compound | Solubility in water
1 | 8.5 | CC1CCC(C(C)C)C(O)C1 (centres unmarked) [Menthol] | neither menthol nor camphor are significantly soluble in water
2 | 86.7 | CC12CCC(CC1=O)C2(C)C (centres unmarked) [camphor] | neither menthol nor camphor are significantly soluble in water
3 | 5.9 | CCO [ethanol] | 
